Source: patent US20230416227A1, “PLASMA KALLIKREIN INHIBITORS” (Merck Sharp & Dohme LLC, priority 2020, published 2023)
pIC50: −log10 of the molar value.

Biological target: T1, Human plasma kallikrein (Homo sapiens, UniProt P03952)
T1 construct: yields a heavy chain (371 amino acids) and a light chain (248 amino acids); purchased Enzyme Research Laboratories
Experiment: Plasma Kallikrein Assay
Format: biochemical
Settings: purified Human plasma kallikrein 0.5 nM, substrate Acetyl-K-P-R-AFC, pH 7.4
Protocol: The effectiveness of a compound of the present invention as an inhibitor of plasma kallikrein can be determined using a relevant purified serine protease, and an appropriate synthetic substrate. The rate of hydrolysis of the chromogenic or fluorogenic substrate by the relevant serine protease was measured both in the absence and presence of compounds of the present invention. Assays were conducted at rt or at 37° C. […] A decrease in the rate of fluorescence change in the presence of inhibitor is indicative of enzyme inhibition. Such methods are known to one skilled in the art. The results of this assay are expressed as the half-maximal inhibitory concentrations (IC50), or the inhibitory constant, Ki.
Plasma kallikrein determinations were made in 50 mM HEPES buffer at pH 7.4 containing 150 mM NaCl, 5 mM CaCl2), and 0.1% PEG 8000 (polyethylene glycol; Fisher Scientific). […]
Times required to achieve equilibration between enzyme and inhibitor were determined in control experiments. The reactions were performed under linear progress curve conditions and fluorescence increase measured at 405 Ex/510 Em nm. […] IC50 was determined by inflection point from a four parameter logistic curve fit. Ki was calculated using the Cheng Prusoff equation, Ki=IC50/(1+([S]/Km)).

T1 sequence (P03952 391-638 limits assumed): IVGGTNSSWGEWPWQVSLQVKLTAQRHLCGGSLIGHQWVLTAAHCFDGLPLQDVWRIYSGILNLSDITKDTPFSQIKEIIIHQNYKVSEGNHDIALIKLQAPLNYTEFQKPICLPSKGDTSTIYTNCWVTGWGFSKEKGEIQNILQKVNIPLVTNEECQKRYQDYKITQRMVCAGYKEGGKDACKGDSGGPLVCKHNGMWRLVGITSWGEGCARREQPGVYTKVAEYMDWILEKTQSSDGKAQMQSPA
T1 sequence (P03952 20-390 partner limits assumed): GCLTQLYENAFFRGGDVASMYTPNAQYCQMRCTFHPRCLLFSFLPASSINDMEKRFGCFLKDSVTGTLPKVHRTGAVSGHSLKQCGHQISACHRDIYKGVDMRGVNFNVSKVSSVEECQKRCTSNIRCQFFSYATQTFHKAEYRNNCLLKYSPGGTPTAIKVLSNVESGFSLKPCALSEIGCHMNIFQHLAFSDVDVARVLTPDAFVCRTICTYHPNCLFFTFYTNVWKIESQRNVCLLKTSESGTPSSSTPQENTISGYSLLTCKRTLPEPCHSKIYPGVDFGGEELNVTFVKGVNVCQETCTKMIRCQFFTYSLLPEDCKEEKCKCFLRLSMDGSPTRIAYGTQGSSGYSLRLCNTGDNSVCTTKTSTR

pIC50 | SMILES
7.57 | Cc1nc(N2CCC2)cnc1Cn1cc(NC(=O)c2cncc(-c3c(C(F)F)ccc(Cl)c3F)n2)cn1 [Example 24, N-(1-((5-(Azetidin-1-yl)-3-methylpyrazin-2-yl)methyl)-1H-pyrazol-4-yl)-6-(3-chloro-6-(difluoromethyl)-2-fluorophenyl)pyrazine-2-carboxamide]
7.67 | CC(c1cnc(N2CC[C@H]2[C@@H](C)N[C@H](C)C(C)(C)O)nc1)n1cc(NC(=O)c2cncc(-c3c(C(F)F)ccc(Cl)c3F)n2)cn1 (stereo partly drawn) [Example 194, 6-(3-Chloro-6-(difluoromethyl)-2-fluorophenyl)-N-(1-(1-(2-((S)-2-((R)-1-(((R)-3-hydroxy-3-methylbutan-2-yl)amino)ethyl)azetidin-1-yl)pyrimidin-5-yl)ethyl)-1H-pyrazol-4-yl)pyrazine-2-carboxamide]
6.39 | CC(c1cnc(N2CC3CC3C2C#N)nc1)n1cc(NC(=O)c2cncc(-c3c(C(F)F)ccc(Cl)c3F)n2)cn1 (single isomer, unassigned) [Example 197]
8.64 | CC(c1cnc(N2CC[C@H]2CN2CC(C)(O)C2)nc1)n1cc(NC(=O)c2cncc(-c3c(C(F)F)ccc(Cl)c3F)n2)cn1 (stereo partly drawn) [Example 174, 6-(3-Chloro-6-(difluoromethyl)-2-fluorophenyl)-N-(1-(1-(2-((S)-2-((3-hydroxy-3-methylazetidin-1-yl)methyl)azetidin-1-yl)pyrimidin-5-yl)ethyl)-1H-pyrazol-4-yl)pyrazine-2-carboxamide]
8.21 | CC(c1cnc(N2CC[C@H]2CN[C@H](C)C(C)(C)O)nc1)n1cc(NC(=O)c2cncc(-c3c(C(F)F)ccc(Cl)c3F)n2)cn1 (stereo partly drawn) [Example 182, 6-(3-Chloro-6-(difluoromethyl)-2-fluorophenyl)-N-(1-(1-(2-((S)-2-((((R)-3-hydroxy-3-methylbutan-2-yl)amino)methyl)azetidin-1-yl)pyrimidin-5-yl)ethyl)-1H-pyrazol-4-yl)pyrazine-2-carboxamide]
7.31 | O=C(Nc1cnn(Cc2cnc(N3CCCC3CC3(O)CC3)nc2)c1)c1cncc(-c2c(C(F)F)ccc(Cl)c2F)n1 (single isomer, unassigned) [Example 112, (S or R)-6-(3-Chloro-6-(difluoromethyl)-2-fluorophenyl)-N-(1-((2-(2-((1-hydroxycyclopropyl)methyl)pyrrolidin-1-yl)pyrimidin-5-yl)methyl)-1H-pyrazol-4-yl)pyrazine-2-carboxamide]
8.85 | CC(c1cnc(N2CC[C@H]2[C@@H](C)N2CC[C@H](O)C2)nc1)n1cc(NC(=O)c2cncc(-c3c(C(F)F)ccc(Cl)c3F)n2)cn1 (stereo partly drawn) [Example 186, 6-(3-Chloro-6-(difluoromethyl)-2-fluorophenyl)-N-(1-(1-(2-((S)-2-((R)-1-((S)-3-hydroxypyrrolidin-1-yl)ethyl)azetidin-1-yl)pyrimidin-5-yl)ethyl)-1H-pyrazol-4-yl)pyrazine-2-carboxamide]
7.38 | CC(C)(O)CC1CCCN1c1ncc(Cn2cc(NC(=O)c3cncc(-c4c(C(F)F)ccc(Cl)c4F)n3)cn2)cn1 (stereo not shown) [Example 106, 6-(3-Chloro-6-(difluoromethyl)-2-fluorophenyl)-N-(1-((2-(2-(2-hydroxy-2-methylpropyl)pyrrolidin-1-yl)pyrimidin-5-yl)methyl)-1H-pyrazol-4-yl)pyrazine-2-carboxamide]
7.52 | O=C(Nc1cnn(Cc2ccc(N3CC[C@H]3CO)nc2)c1)c1cncc(-c2c(C(F)F)ccc(Cl)c2F)n1 [Example 126, (S)-6-(3-Chloro-6-(difluoromethyl)-2-fluorophenyl)-N-(1-((6-(2-(hydroxymethyl)azetidin-1-yl)pyridin-3-yl)methyl)-1H-pyrazol-4-yl)pyrazine-2-carboxamide]
7.42 | CC(=O)N1CC[C@H]2CN(c3ccc(Cn4cc(NC(=O)c5cncc(-c6c(C(F)F)ccc(Cl)c6F)n5)cn4)cn3)[C@H]2C1 [Example 131, N-(1-((6-((1R,6S)-3-Acetyl-3,8-diazabicyclo[4.2.0]octan-8-yl)pyridin-3-yl)methyl)-1H-pyrazol-4-yl)-6-(3-chloro-6-(difluoromethyl)-2-fluorophenyl)pyrazine-2-carboxamide]
7.50 | O=C(Nc1cnn(Cc2ccc(N3CC4C(C3)C4(F)F)nc2)c1)c1cncc(-c2c(C(F)F)ccc(Cl)c2F)n1 (stereo not shown) [Example 127, 6-(3-Chloro-6-(difluoromethyl)-2-fluorophenyl)-N-(1-((6-(6,6-difluoro-3-azabicyclo[3.1.0]hexan-3-yl)pyridin-3-yl)methyl)-1H-pyrazol-4-yl)pyrazine-2-carboxamide]
8.25 | CC(c1cnc(N2Cc3cncnc3C2)nc1)n1cc(NC(=O)c2cncc(-c3c(C(F)F)ccc(Cl)c3F)n2)cn1 (stereo not shown) [Example 78, 6-(3-Chloro-6-(difluoromethyl)-2-fluorophenyl)-N-(1-(1-(2-(5,7-dihydro-6H-pyrrolo[3,4-d]pyrimidin-6-yl)pyrimidin-5-yl)ethyl)-1H-pyrazol-4-yl)pyrazine-2-carboxamide]
7.39 | Nc1ncc(-c2c(C(F)F)ccc(Cl)c2F)nc1C(=O)Nc1cnn(Cc2cnc(N3CCC3)nc2)c1 [Example 3, 3-Amino-N-(1-((2-(azetidin-1-yl)pyrimidin-5-yl)methyl)-1H-pyrazol-4-yl)-6-(3-chloro-6-(difluoromethyl)-2-fluorophenyl)pyrazine-2-carboxamide]
8.02 | O=C(Nc1cnn(Cc2cnc(N3CCCC3CN3C[C@H](F)[C@@H](F)C3)nc2)c1)c1cncc(-c2c(C(F)F)ccc(Cl)c2F)n1 (stereo partly drawn) [Example 158, 6-(3-Chloro-6-(difluoromethyl)-2-fluorophenyl)-N-(1-((2-(2-(((35,4S)-3,4-difluoropyrrolidin-1-yl)methyl)pyrrolidin-1-yl)pyrimidin-5-yl)methyl)-1H-pyrazol-4-yl)pyrazine-2-carboxamide]
7.74 | CN(CCO)c1ccc(Cn2cc(NC(=O)c3cncc(-c4c(C(F)F)ccc(Cl)c4F)n3)cn2)cn1 [Example 121, 6-(3-Chloro-6-(difluoromethyl)-2-fluorophenyl)-N-(1-((6-((2-hydroxyethyl)(methyl)amino)pyridin-3-yl)methyl)-1H-pyrazol-4-yl)pyrazine-2-carboxamide]
8.27 | O=C(Nc1cnn(Cc2ccc(N3CCC4OCCC43)nc2)c1)c1cncc(-c2c(C(F)F)ccc(Cl)c2F)n1 (stereo not shown) [Example 117, 6-(3-Chloro-6-(difluoromethyl)-2-fluorophenyl)-N-(1-((6-(hexahydro-4H-furo[3,2-b]pyrrol-4-yl)pyridin-3-yl)methyl)-1H-pyrazol-4-yl)pyrazine-2-carboxamide]
5.42 | CC1C2CC2CN1c1ncc(C(CO)n2cc(NC(=O)c3cncc(-c4c(C(F)F)ccc(Cl)c4F)n3)cn2)cn1 (single isomer, unassigned) [Example 51, 6-(3-Chloro-6-(difluoromethyl)-2-fluorophenyl)-N-(1-((R or S)-2-hydroxy-1-(2-((1R,2S,5S or 1S,2R, 5R)-2-methyl-3-azabicyclo[3.1.0]hexan-3-yl)pyrimidin-5-yl)ethyl)-1H-pyrazol-4-yl)pyrazine-2-carboxamide]
7.85 | CN1C2CCC1CN(c1ccc(Cn3cc(NC(=O)c4cncc(-c5c(C(F)F)ccc(Cl)c5F)n4)cn3)cn1)C2 [Example 205, 6-(3-Chloro-6-(difluoromethyl)-2-fluorophenyl)-N-(1-((6-(8-methyl-3,8-diazabicyclo[3.2.1]octan-3-yl)pyridin-3-yl)methyl)-1H-pyrazol-4-yl)pyrazine-2-carboxamide]
7.11 | CC(c1cnc(N2C[C@H]3C[C@H]3C2C(=O)N(C)C)nc1)n1cc(NC(=O)c2cncc(-c3c(C(F)F)ccc(Cl)c3F)n2)cn1 (single isomer, unassigned) [Example 203, (1R,2S,5S or 1S,2R,5R)-3-(5-((S or R)-1-(4-(6-(3-Chloro-6-(difluoromethyl)-2-fluorophenyl)pyrazine-2-carboxamido)-1H-pyrazol-1-yl)ethyl)pyrimidin-2-yl)-N,N-dimethyl-3-azabicyclo[3.1.0]hexane-2-carboxamide]
7.75 | COC[C@@H]1CCCN1c1ccc(Cn2cc(NC(=O)c3cncc(-c4c(C(F)F)ccc(Cl)c4F)n3)cn2)cn1 [Example 120, (S)-6-(3-Chloro-6-(difluoromethyl)-2-fluorophenyl)-N-(1-((6-(2-(methoxymethyl)pyrrolidin-1-yl)pyridin-3-yl)methyl)-1H-pyrazol-4-yl)pyrazine-2-carboxamide]
7.76 | CC(c1cnc(N2Cc3ccncc3C2)nc1)n1cc(NC(=O)c2cncc(-c3c(C(F)F)ccc(Cl)c3F)n2)cn1 (stereo not shown) [Example 89, 6-(3-Chloro-6-(difluoromethyl)-2-fluorophenyl)-N-(1-(1-(2-(1,3-dihydro-2H-pyrrolo[3,4-c]pyridin-2-yl)pyrimidin-5-yl)ethyl)-1H-pyrazol-4-yl)pyrazine-2-carboxamide]
8.44 | NC(=O)[C@@H]1CCCN1c1ccc(Cn2cc(NC(=O)c3cncc(-c4c(C(F)F)ccc(Cl)c4F)n3)cn2)cn1 [Example 116, (S)-N-(1-((6-(2-Carbamoylpyrrolidin-1-yl)pyridin-3-yl)methyl)-1H-pyrazol-4-yl)-6-(3-chloro-6-(difluoromethyl)-2-fluorophenyl)pyrazine-2-carboxamide]
